In data set [1] the test system is interleukin-6 (IL-6) release from fresh human whole blood. The experiment in a line: Ex vivo release of interleukin-6 from fresh human whole blood (ELISA). The class given is cell-based. The note with it: for concentration of IL-6: human whole blood cultures, 24 hours, n = 5. The text has this:
Ex vivo assessment of proinflammatory properties of the AP301 peptide in human whole blood. […] In this study, fresh human whole blood has been used, as it represents an approved predictive model system for the assessment of inflammatory response in vivo.
Summary of methodology. It was the goal of this study to determine the proinflammatory signalling capacity of the peptide AP301. Whole blood cultures were used and the secretion of interleukin-6 (IL-6), a very sensitive marker for proinflammatory stimulation, was quantified by ELISA.
Test system 25 ml of freshly taken heparinized blood from • 5 healthy volunteers (HV) was used in the tests. […]
Whole blood cultures. Whole blood (WB) cultures are performed by pipetting 1 ml WB into wells of 24-well-plates. In each experiment, unstimulated and control-stimulated cultures were included.
If possible, the substances and stimulants to be investigated were always added in an identical volume to each well of a given experiment, which is not greater than 10% of the total volume contained in a well. Unstimulated controls received PBS. Volume adjustments and dilutions for different treatments were also done with PBS.
The content of each well was mixed and the plates incubated at 37° C. and 5% CO2 for 24 hours. After incubation the content of each well was transferred to a fresh 1.5 ml microtube and centrifuged at 8,000-9,000×g for 15 minutes. The supernatant of each sample was transferred individually to two 1.5 ml microtubes and kept at −20° C. until use.
Detection of interleukin-6. Interleukin-6 was quantified by a specific ELISA (Human IL-6 ELISA Set, BD Biosciences, Cat. No. 555220) employing an anti-human IL-6 antibody as capture antibody, a biotinylated anti-human IL-6 detection antibody, avidin-horseradish peroxidase conjugate as enzyme reagent and recombinant IL-6 as standard. Absorbance measurement was performed at 450 nm using the Packard FusionReader.
Data analysis. The results for each plate were stored and evaluated using the FusionDataAnalysis Software. […]

The subject of data set [2] is influenza strain A (PR8/34). The experiment in a line: Relative lung weight as a measure of pulmonary inflammation in mice infected with influenza A. The class given is in vivo, mice (strain C57BL/6). The settings on record: repeated on days 2 and 4. The procedure: Infection with influenza virus causes the development of a pulmonary inflammation. Laboratory mice (strain C57BL/6, 8 weeks old) were infected per-nasal with the influenza strain A (PR8/34) at a dose of 150 PFU. On days 3, 5, 7 and 9 following the infection, the lungs were taken out of 8 mice, respectively, and the relative lung weight was determined as a measure of the pulmonary inflammation.
Treatment of the pulmonary inflammation by administering the neuraminidase inhibitor or administering a combination of neuraminidase inhibitor and peptide AP301. Laboratory mice (strain C57BL/6, 8 weeks old) were infected per-nasal with the influenza strain A (PR8/34) at a dose of 150 PFU. Subsequently, each test animal received an oral administration of 10 mg/kg Oseltamivir (neuraminidase inhibitor) and an intratracheal administration of 10 μg/test animal of peptide AP301. The treatment was repeated on test days 2 and 4. On days 5, 7 and 9 following the infection, the lungs were taken out of 30 mice, respectively, and the relative lung weight was determined as a measure of the pulmonary inflammation. The results are shown graphically in FIG. 2. […]
On days 7 and 9 following the infection, the lungs were taken out of 20 mice, respectively, and the relative lung weight was determined as a measure of the pulmonary inflammation. […]

From patent US11161881B2, “Composition comprising a peptide and an inhibitor of viral neuraminidase” (priority 2010, dated 2021) come the findings set out here.

In the case of `C[C@@H]1NC(=O)CNC(=O)[C@H](CCC(=O)O)NC(=O)[C@@H]2CCCN2C(=O)[C@H]([C@@H](C)O)NC(=O)[C@H](CCC(=O)O)NC(=O)[C@H](CCCNC(=N)N)NC(=O)[C@H](CCC(N)=O)NC(=O)CNC(=O)[C@@H](N)CSSC[C@@H](C(=O)O)NC(=O)[C@H](Cc2ccc(O)cc2)NC(=O)[C@H](Cc2c[nH]c3ccccc23)NC(=O)[C@@H]2CCCN2C(=O)[C@H](CCCCN)NC(=O)[C@H](C)NC(=O)[C@H](CCC(=O)O)NC1=O` [AP301, (NH2) Cys-Gly-Gln-Arg-Glu-Thr-Pro-Glu-Gly-Ala-Glu-Ala-Lys-Pro-Trp-Tyr-Cys (COOH)], the “induction of IL-6 secretion (in words)” value in data set [1] (all concentrations tested (10 μg/ml to 1 ng/ml for peptide; high and low doses of LPS), five healthy donors) was “did not induce any detectable level of IL-6 secretion”. In addition, the “TNF receptor binding activity / proinflammatory response (concluded from IL-6 release)” value in data set [1] (ex vivo human whole blood model) was “does not exhibit any TNF receptor binding activity”. The “concentration of IL-6” value in data set [1] (test item concentration 1 ng/ml), in data set [1] (test item concentration 3 ng/ml), in data set [1] (test item concentration 1 mg/ml) and in data set [1] (test item concentration 10 mg/ml) was “less than 0.5 pg/ml” throughout.
As to `CCOC(=O)C1=C[C@@H](OC(CC)CC)[C@H](NC(C)=O)[C@@H](N)C1` [Oseltamivir], in data set [2] (Example 2: 150 PFU per-nasal, Oseltamivir 10 mg/kg oral, AP301 10 μg/test animal intratracheal, lungs on days 5, 7 and 9), the “reduction of pulmonary inflammation, as measured by the lung weight” value is “just a moderate effect on reducing the pulmonary inflammation”.
For the compound `CC(=O)N[C@H]1[C@H]([C@H](O)[C@H](O)CO)OC(C(=O)O)=C[C@@H]1N=C(N)N` [Zanamivir], the “reduction of pulmonary inflammation, as measured by the lung weight” value in data set [2] (Example 4: 150 PFU per-nasal, Zanamivir 1.5 mg/kg nasal, AP301 50 μg/test animal intratracheal, lungs on days 7 and 9) was “just a moderate effect on reducing the pulmonary inflammation”.
